Results on one molecule are retold here after PMC9489722, “Identification and development of a subtype-selective allosteric AKT inhibitor suitable for clinical development” (Scientific Reports, 2022).

SMILES strings stand for the structures. Like-named read-outs stand apart in the source and are kept apart here.

Series [1] has as its target T1, AKT3 (Homo sapiens, UniProt Q9Y243).
T1 construct: purchased Signal Chem
The series is described as follows: AKT3 biochemical kinase assay (FP iMAP). As to the method:
Biochemical analysis was performed using kinases obtained from Millipore (AKT1, ∆AKT1, ∆AKT2, ∆AKT3) and Signal Chem (AKT2 and AKT3). […] (Molecular Devices) against the three isoforms of AKT and their PH domain null mutants. Compounds were dissolved in DMSO prior to screening at 14 point titration series in the range (50 µM–50 pM). Fluorescence polarisation was measured using a Biotek Synergy 4 Hybrid microplate reader. Percentage inhibition of kinase activity was calculated and IC50 values derived using non-linear regression on GraphPad Prism. Competition of ALM301 with ATP was determined using AKT1 under increasing ATP concentrations up to 1000 µM.

For series [2], the system named is ∆AKT3. In words: PH domain null AKT3 biochemical kinase assay (FP iMAP). The procedure:
Biochemical analysis was performed using kinases obtained from Millipore (AKT1, ∆AKT1, ∆AKT2, ∆AKT3) and Signal Chem (AKT2 and AKT3). The specific activity of AKT 1,2 and 3 was determined to be 114 nmol/min/mg, 44 nmol/min/mg and 200 nmol/min/mg respectively as per activity assay protocol. ALM301 was profiled using the Fluorescent Polarisation (FP) iMAP Screening Express kit (Molecular Devices) using the FAM-Crosstide substrate [5FAM-[…]-OH] (Molecular Devices) against the three isoforms of AKT and their PH domain null mutants. Compounds were dissolved in DMSO prior to screening at 14 point titration series in the range (50 µM–50 pM). Fluorescence polarisation was measured using a Biotek Synergy 4 Hybrid microplate reader. Percentage inhibition of kinase activity was calculated and IC50 values derived using non-linear regression on GraphPad Prism. Competition of ALM301 with ATP was determined using AKT1 under increasing ATP concentrations up to 1000 µM.

A short description of series [3]: Kinetic solubility assay. It is filed as physicochemical. Particulars: PBS buffer, pH 7.4, aqueous buffer, kinetic from dmso stock, PBS pH 7.4; read-out: Kinetic solubility pH7.4. As to the method: Compound solubility was tested in Dulbecco A PBS buffer at pH7.4 in Millipore MultiScreen Solubility Filter plates. Analysis was carried out on a Bioteck Synergy 4 plate reader (240–400 nm) and solubility quantified against a 5-point calibration curve.

In series [4] the target is CYP 2C19 (Homo sapiens, UniProt P33261). The series is described as follows: CYP2C19 inhibition. Format: in vitro ADME.
The target of series [5] is T2, AKT1 (Homo sapiens, UniProt P31749).
T2 construct: purchased Millipore
The series is described as follows: SelectScreen kinase selectivity profiling, AKT1. Format: biochemical. The following applies: read-out: % inhibition @ 10 µM, AKT1; 10 µM fixed concentration. As to the method: (§1) Off-target kinase activity was performed using the SelectScreen kinase profiling service against either mini 50 kinase or full 450 kinase panels using the Z’lyte and Adapta kinase activity platforms (performed by Thermofisher).

The target of series [6] is T3, AKT2 (Homo sapiens, UniProt P31751).
T3 construct: purchased Signal Chem
In words: SelectScreen kinase selectivity profiling, AKT2. Format: biochemical. The following applies: read-out: % inhibition @ 10 µM, AKT2; 10 µM fixed concentration. As to the method:
as §1

Series [7] has as its target T1, AKT3. The series is described as follows: SelectScreen kinase selectivity profiling, AKT3. Format: biochemical. Particulars: read-out: % inhibition @ 10 µM, AKT3; 10 µM fixed concentration. As to the method:
as §1

The target in series [8] is p38α (Homo sapiens, UniProt Q16539). In words: SelectScreen kinase selectivity profiling, p38α. Format: biochemical. As to the method:
as §1

For series [9], the system named is MCF-7 cells. The series is described as follows: In vitro Incucyte live cell imaging proliferation assay. The following applies: MCF-7, 5 µM, 7d time course. It is filed as cell-based. The procedure: MCF-7 cells were obtained from American Type Culture Collection (ATCC). […] Cell confluency was measured over time using an Incucyte Zoom S3 using the basic analyser processing analysing tool. Percentage confluence values were calculated and IC50 values were derived as previously stated.

The test system of series [10] is pAKT^S473 in A549 tumours. In words: PK/PD study in A549 lung cancer xenograft model. Format: in vivo, mouse. The following applies: single oral dose 10, 30 or 100 mg/kg. The procedure:
In order to understand the relationship between ALM301 plasma exposure and in vivo AKT target engagement over time, a PK/PD study was carried out in a A549 lung cancer xenograft model. […] ALM301 plasma concentrations and levels of pAKT^S473 in tumours were measured using western blotting and immunohistochemistry (Fig. 4A, B and Supplementary Fig. S4A–C). […] Tumour sections were collected following one dose of either vehicle or 30 mg/kg of ALM301 at noted time intervals (1 h, 2 h, 4 h, 8 h, 24 h). Tissue sections were subsequently stained with pAKT antibody (brown) staining and scored for pAKT staining using a scale of 1–4 (low to high) (Fig. 4B).
For pharmacokinetic/pharmacodynamic (PK/PD) studies in A549 lung cancer xenografts, 150 male BALB/c nude mice aged 6–8 weeks and weighing approximately 18–22 g were inoculated with 1 × 10^7 A549 tumour cells (ATCC) in 0.1 mL of PBS with Matrigel (1:1) subcutaneously into the right flank. Once the mean tumour size reached 150–250 mm^3, the mice were randomised into treatment groups (18 mice per group) using a randomised block design (first, experimental animals are divided into homogeneous blocks according to their initial tumour volume; secondly, within each block, randomisation of animals to treatment groups was conducted so that each animal had the same probability of being assigned to a given treatment, thereby reducing systematic bias). Group sizes were devised based on previous pilot studies using a minimal numbers approach of n = 3 tumours per time-point (6 time-points per dose level). […] Tumour size was measured twice weekly in two dimensions using a caliper, and the volume expressed in mm^3 using the formula: V = 0.5 (a × b^2), where a and b are the long and short diameters of the tumour, respectively.

Series [11] deals with MCF-7 xenografts. The series is described as follows: Efficacy study in MCF-7 breast cancer xenograft model. Particulars: MCF-7 xenograft; for tumour regression: p.o. Format: in vivo. As to the method: For efficacy in MCF-7 xenografts, 150 SCID female mice aged 6–8 weeks and weighing approximately 18–22 g were implanted with 1 × 10^7 MCF-7 tumour cells (ATCC) subcutaneously in the right flank. […] Once mean tumour size reached approximately 150 mm^3, mice were randomised to either control or treatment groups (n = 10/group) using a randomised block approach. Groups sizes were devised based on past experience of the provider. […] Tumour size was measured twice weekly in two dimensions using a caliper, and the volume expressed in mm^3 using the formula: V = 0.5 (a x b^2), where a and b are the long and short diameters of the tumour, respectively.

T1 sequence (Q9Y243 whole entry): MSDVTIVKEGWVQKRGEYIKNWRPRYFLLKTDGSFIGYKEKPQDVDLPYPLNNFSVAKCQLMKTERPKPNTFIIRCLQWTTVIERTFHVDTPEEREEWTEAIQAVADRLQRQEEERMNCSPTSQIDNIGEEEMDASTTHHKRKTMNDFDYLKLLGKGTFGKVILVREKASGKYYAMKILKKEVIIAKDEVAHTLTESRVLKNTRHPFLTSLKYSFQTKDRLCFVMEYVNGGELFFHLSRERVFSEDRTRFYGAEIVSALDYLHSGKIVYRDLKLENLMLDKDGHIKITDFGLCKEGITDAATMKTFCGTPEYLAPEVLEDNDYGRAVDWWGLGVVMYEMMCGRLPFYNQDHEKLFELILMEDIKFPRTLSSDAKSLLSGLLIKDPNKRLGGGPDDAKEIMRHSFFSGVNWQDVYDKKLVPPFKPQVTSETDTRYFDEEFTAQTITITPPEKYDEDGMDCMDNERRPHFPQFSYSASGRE
p38α, sequence (Q16539 whole entry): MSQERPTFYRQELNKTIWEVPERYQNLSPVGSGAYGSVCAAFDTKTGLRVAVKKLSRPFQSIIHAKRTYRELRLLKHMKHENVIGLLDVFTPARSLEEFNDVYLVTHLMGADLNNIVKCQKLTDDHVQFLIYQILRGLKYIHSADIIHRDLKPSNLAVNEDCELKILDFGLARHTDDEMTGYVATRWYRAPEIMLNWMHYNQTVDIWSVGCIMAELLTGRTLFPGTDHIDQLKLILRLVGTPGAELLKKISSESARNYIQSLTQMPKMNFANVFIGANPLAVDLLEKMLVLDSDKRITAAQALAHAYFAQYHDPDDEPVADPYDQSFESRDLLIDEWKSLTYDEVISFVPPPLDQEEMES
T2 sequence (P31749 whole entry): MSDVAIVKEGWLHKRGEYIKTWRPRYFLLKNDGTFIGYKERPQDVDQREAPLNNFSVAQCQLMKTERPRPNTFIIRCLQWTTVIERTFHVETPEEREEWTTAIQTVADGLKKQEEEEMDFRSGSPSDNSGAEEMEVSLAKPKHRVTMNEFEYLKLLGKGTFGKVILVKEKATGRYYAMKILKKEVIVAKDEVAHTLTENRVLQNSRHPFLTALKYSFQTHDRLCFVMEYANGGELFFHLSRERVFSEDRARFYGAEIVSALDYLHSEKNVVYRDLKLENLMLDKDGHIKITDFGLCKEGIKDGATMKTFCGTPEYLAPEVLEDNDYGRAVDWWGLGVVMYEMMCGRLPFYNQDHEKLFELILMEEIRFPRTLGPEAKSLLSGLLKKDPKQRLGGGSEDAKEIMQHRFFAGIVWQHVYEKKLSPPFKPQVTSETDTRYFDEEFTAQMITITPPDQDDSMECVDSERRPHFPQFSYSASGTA
T3 sequence (P31751 whole entry): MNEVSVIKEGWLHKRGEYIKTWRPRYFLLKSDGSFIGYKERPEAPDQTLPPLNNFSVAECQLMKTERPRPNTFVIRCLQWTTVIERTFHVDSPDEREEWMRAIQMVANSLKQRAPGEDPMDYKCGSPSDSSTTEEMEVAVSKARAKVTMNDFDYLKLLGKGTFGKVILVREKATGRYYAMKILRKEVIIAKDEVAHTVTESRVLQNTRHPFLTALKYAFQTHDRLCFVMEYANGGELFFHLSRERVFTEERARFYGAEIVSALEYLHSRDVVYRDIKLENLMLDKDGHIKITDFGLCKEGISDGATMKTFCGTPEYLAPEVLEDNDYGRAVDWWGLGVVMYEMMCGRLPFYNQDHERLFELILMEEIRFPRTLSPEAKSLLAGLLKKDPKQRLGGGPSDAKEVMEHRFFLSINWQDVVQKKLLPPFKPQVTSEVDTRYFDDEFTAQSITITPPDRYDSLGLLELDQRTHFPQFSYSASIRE
CYP 2C19, sequence (P33261 whole entry): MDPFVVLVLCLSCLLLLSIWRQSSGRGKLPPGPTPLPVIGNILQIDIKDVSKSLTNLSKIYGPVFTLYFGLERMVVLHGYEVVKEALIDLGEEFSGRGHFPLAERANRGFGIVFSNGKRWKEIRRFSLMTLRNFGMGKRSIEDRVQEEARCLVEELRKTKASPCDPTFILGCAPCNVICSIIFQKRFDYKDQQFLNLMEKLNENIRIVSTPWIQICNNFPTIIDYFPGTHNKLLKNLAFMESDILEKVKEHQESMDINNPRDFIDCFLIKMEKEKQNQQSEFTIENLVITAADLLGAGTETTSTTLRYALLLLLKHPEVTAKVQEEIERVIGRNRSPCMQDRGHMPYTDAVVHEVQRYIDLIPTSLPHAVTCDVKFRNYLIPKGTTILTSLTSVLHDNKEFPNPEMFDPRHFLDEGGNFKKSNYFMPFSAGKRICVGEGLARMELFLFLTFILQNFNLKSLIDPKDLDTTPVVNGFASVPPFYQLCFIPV

Regarding `CCN1C(=O)COc2nc(-c3ccc([C@]4(N)C[C@@H](O)C4)cc3)c(-c3ccccc3)cc21` [ALM301, 6-(4-((1S,3S)-1-amino-3-hydroxycyclobutyl)phenyl)-1-ethyl-7-phenyl-1H-pyrido[2,3-b][1,4]oxazin-2(3H)-one], in series [1] (in vitro kinase assays), the “potency versus AKT3 reduced relative to AKT1 and AKT2” value was “over 20 fold”. Besides, the half-inhibitory concentration (IC50) is 2750 nM in series [1] (read-out: AKT IC50, AKT3); more than 500 nM in series [1] (read-out: IC50 AKT3); more than 25 µM in series [4]; more than 10 µM in [8] (10-point titration curve). The “inhibition of truncated AKT3 lacking PH domain” value in series [2] is given as “not inhibited”. The solubility (kinetic) in series [3] is 192 µM. The inhibition at 10 µM in series [5] came out at 95%; in series [6] it was 89%; in series [7] it was 72%; in series [8] (read-out: % inhibition @ 10 µM, p38α, 10 µM fixed concentration) it was 84%. Besides, in series [9], the “cell proliferation by live cell imaging” value is “completely abrogated cell proliferation”. In addition, the “pAKT^S473 in tumours” value in series [10] (all timepoints over 24 h, BALB/c mice bearing A549 xenografts) is given as “almost total abrogation”. In addition, the total plasma concentrations result in series [10] (mice bearing A549 xenografts) is reported as “dose-dependent increases”. Besides, the tumour regression is recorded as 57% in [11] (ALM301 3 mg/kg q.d. in combination with tamoxifen 5 mg/kg q.d.) and 50% in series [11] (ALM301 10 mg/kg q.d. in combination with tamoxifen 5 mg/kg q.d.). In addition, in series [11] (monotherapy and in combination with tamoxifen, any dose levels), the “tolerability / animal body weight” value is given as “no significant effects on animal body weight”. Also, in series [11] (p.o. 3 or 10 mg/kg once-a-day), the “tumour growth inhibition, single agent” value was “minimal tumour growth inhibition”.
